The test system of one data set is platelet (PLT). Put plainly: Effect of single intravenous injection on platelet count in beagle dogs (Test Example 5). Format: in vivo. The protocol:
Method of administration: the weight was measured and the dosing amount was calculated based on the weight; the administration regimen is shown in Table 13 below. The drugs were slowly administered by intravenous injection. Blood was collected from the jugular vein or by other suitable means, about 1 mL per sample.

Data set [1] is described as follows: Pharmacokinetic study, single intravenous injection to beagle dogs, docetaxel macromolecules (Test Example 2). Format: in vivo. The note with it: single IV 3 mg/kg, free docetaxel in plasma, mean (1 male + 1 female). The procedure: Docetaxel (84 mg/vial, commercially available) was dissolved in 5% (final volume) DMSO+30% PEG300+5% Tween 80+60% deionized water to obtain 0.6 mg/mL formulations for intravenous injection.
Beagle dogs, non-naïve, sourced from Medicilon: 999M-004.
Method of administration: the weight was measured and the dosing amount was calculated based on the weight. The drugs were slowly administered by intravenous injection. Blood was collected from the jugular vein or by other suitable means, about 1 mL per sample. Plasma samples were collected before administration and at different time points after administration and tested for free docetaxel level in plasma. For the docetaxel group, collection was performed before administration and at 0.083 h, 0.5 h, 1 h, 2 h, 4 h, 6 h, 8 h and 24 h after administration.

The nature of data set [2]: Hematological analysis (complete blood count) in the A549 subcutaneous tumor graft model (Test Example 3).
Experimental: After the last administration, plasma was collected at the time points designated in Table 7 (EDTA anticoagulant tubes were used (the esterase inhibitor DDVP was added at the time of blood collection)). After plasma collection at the last time point was complete, the mice were euthanized, and tumors were collected, snap frozen and stored.
Data set [3] concerns human lung cancer cell A549. Kind of data set: Antitumor effect in subcutaneous tumor graft model of human lung cancer cell A549 (Test Example 3). Format: in vivo, BALB/C nude mice. The note with it: for Tumor volume: i.v. QW × 4 doses, docetaxel 20, 1-Z00 20, 1-Z00-J 10 mg/kg. The procedure: Samples are prepared according to Table 5 below.
BALB/C nude mice, female, 6-7 week old (the age when tumor cell inoculation was performed), weighing 16.5-22.6 g, purchased from GemPharmatech Co., Ltd., certificate No. 320727210100243463. Housing environment: SPF.
A549 cells (National Collection of Authenticated Cell Cultures/Cell Bank of Shanghai Institutes for Biological Sciences (cellbank.org.cn, SIBS)) were cultured in an F12K medium (Gibco) containing 10% fetal bovine serum. Cells were collected when growing at the exponential phase and resuspended in PBS to a suitable concentration for use in subcutaneous tumor inoculation in mice.
5×10^6 A549 cells were subcutaneously inoculated into the right side of female mice (inoculation volume: 0.1 mL/mouse). The day of inoculation was defined as day 0. When the mean tumor volume was 142.96 mm^3 (on day 13 after cell inoculation), the mice were randomly grouped according to tumor size as shown in Table 6 below (dosing volume: 10 μL/g).
After tumor inoculation, routine monitoring items included the effect of tumor growth and treatment on the normal behavior of animals, including activity, food intake and water intake, weight gain or loss (body weight was measured twice a week), abnormalities in eyes, hair, etc. Clinical symptoms observed during the experiment were all recorded in the raw data. Tumor volume calculation formula: tumor volume (mm^3)=½×(a×b^2) (where a represents long diameter and b represents short diameter). In the experiment, data collection, including measurement of tumors' long and short diameters and animals' body weight, was performed using StudyDirector™ (version: 3.1.399.19; supplier: Studylog System, Inc., S. San Francisco, CA, USA) software. Raw data measured by scales and vernier calipers were directly imported into the software. Any changes in the data were recorded in the software.
When the body weight of an individual animal decreased by >20%, it was euthanized according to animal welfare.
Relative tumor proliferation rate, T/C (%), refers to the percentage value of the relative tumor volume or tumor weight of the treatment group and the control group at a certain time point. The calculation formula is: T/C %=TRTV/CRTV×100% (TRTV: mean RTV of treatment group; CRTV: mean RTV of control group; RTV=Vt/V0, V0 is the tumor volume of the animal at the time of grouping, and Vt is the tumor volume of the animal after treatment).
All the results are expressed as mean tumor volume±SEM (standard error of the mean). The best point of drug treatment (usually after the last administration) was selected for statistical analysis between different groups. A two-way ANOVA was used to determine whether there was a significant difference in tumor volume between a treatment group and the control group. p<0.05 indicates a significant difference. Statistical analysis and graphing were both performed in the R language environment (version 3.3.1). All tests were two-tailed unless otherwise specified. A p value less than 0.05 was considered statistically significant.

The nature of data set [4]: Pharmacokinetic study, single intravenous injection to rats (Test Example 1). Format: in vivo, SD rats. The procedure:
• (1) Preparation of docetaxel: commercially available docetaxel injection (0.5 mL:20 mg) was diluted to 4 mg/mL with normal saline; • (2) Preparation of other test compounds: the compounds were dissolved in DMSO with a final concentration of 5%, and the solutions were diluted to 4 mg/mL with normal saline.
Female SD rats, weighing 160-180 g, 6 weeks old, SPF
Plasma samples were separated, and the esterase inhibitor DDVP was added. The samples were stored at −80° C. and tested for docetaxel level (N=3).

The mark [5] stands for this setting: A549 tumor-bearing mice after last administration, docetaxel 20, 1-Z00 20, 1-Z00-J 10 mg/kg i.v., mean ± standard deviation.
Where [6] appears, read: day 21 after administration began, docetaxel 20, 1-Z00 20, 1-Z00-J 10 mg/kg i.v. QW × 4.
Setting [7] is: female SD rats, single IV 10 mg/kg, docetaxel level in plasma, N=3.
The mark [8] stands for this setting: rat, female SD rats, single IV 10 mg/kg, docetaxel level in plasma, N=3.

Values joined by “and” are separate entries in the source; they are usually repeats but may differ in a detail not shown here. Equal entries are not always repeated.

Take `O=C(NS(=O)(=O)c1ccc(N[C@@H](CSc2ccccc2)C[C@@H]2CCCN2CCO)c(S(=O)(=O)C(F)(F)F)c1)c1ccc(N2CCC([C@@H](O)c3ccccc3-c3ccc(Cl)cc3)CC2)cc1` [Compound 3]: the “Day 2 (24 h after administration) PLT mean value” with platelet (PLT) (beagle dogs, 24 h after single IV 3 mg/kg, mean) is listed as 34.00 10^9/L. The “Day 1 (before administration) PLT mean value” with platelet (PLT) (beagle dogs, before single IV 3 mg/kg (baseline), mean) was 355.00 10^9/L. For the same compound, in the data set with platelet (PLT) (beagle dogs, single IV 3 mg/kg), the “Difference (%) between PLT count in dogs at 24 h after administration and that before administration” value is recorded as −90.42%. In addition, the “mortality (animals died)” value with platelet (PLT) (beagle dogs, single IV 3 mg/kg, 3 dogs with compound 3, 2 dogs per dendrimer) is reported as 2. For the same compound, the “Day 2 (24 h after administration) PLT” value with platelet (PLT) (individual male beagle dog, 24 h after single IV 3 mg/kg) was 34.00 10^9/L. Moreover, the “Day 1 (before administration) PLT” value in the data set with platelet (PLT) (individual male beagle dog, before single IV 3 mg/kg (baseline)) is 355.00 10^9/L.

In the case of `CC(=O)O[C@@]12CO[C@@H]1C[C@H](O)[C@@]1(C)C(=O)[C@H](O)C3=C(C)[C@@H](OC(=O)[C@H](O)[C@@H](NC(=O)OC(C)(C)C)c4ccccc4)C[C@@](O)([C@@H](OC(=O)c4ccccc4)[C@H]21)C3(C)C` [Docetaxel], in data set [1] (both sexes, dog), the AUC(0-inf) was found to be 2040 ng·h/mL, the AUC(0-t) came out at 1890 ng·h/mL, the clearance is 24.6 mL/min/kg and the half-life was 13.5 h. The Vd in data set [1] (both sexes, dog, read-out: Vdss) came to 7.39 L/kg. Besides, in data set [1], the AUMC0-inf came out at 10234 h·h·ng·mL^−1, the AUMC0-t is 3854 h·h·ng·mL^−1, the Kel came out at 0.0515 h⁻¹ and the “Mean residence time (MRT)” value is given as 5.02 h. For the same compound, the “decrease of white blood cells, lymphocytes and mononuclear cells compared to the vehicle control group (factor)” value in data set [2] (20 mg/kg i.v.) was 2-3. Besides, in data set [2] (setting [5]), the “Eosinophil EO#” value was 0.02 ± 0.02 10^9/L, the “Lymphocyte LYMPH#” value is recorded as 1.58 ± 0.39 10^9/L, the “Mononuclear cell MONO#” value was 0.11 ± 0.02 10^9/L and the “Neutrophil NEUT#” value is 0.81 ± 0.47 10^9/L. The “White blood cell count WBC” value in data set [2] (setting [5]) was 2.52 ± 0.08 10^9/L. Besides, the Tumor volume in data set [3] (day 0 after administration began (baseline at grouping), mean ± standard error) came out at 142.49 ± 6.17 mm^3. Further, the Tumor volume in data set [3] (day 3 after administration began, mean ± standard error) is reported as 187.27 ± 18.12 mm^3. Also, the Tumor volume in data set [3] (day 7 after administration began, mean ± standard error) is given as 294.09 ± 32.19 mm^3. Moreover, the Tumor volume in data set [3] (day 10 after administration began, mean ± standard error) is reported as 362.73 ± 41.13 mm^3. The compound further gave a Tumor volume in data set [3] (day 14 after administration began, mean ± standard error) of 460.59 ± 68.72 mm^3. This compound displayed a Tumor volume in data set [3] (day 17 after administration began, mean ± standard error) of 502.25 ± 84.97 mm^3. Besides, in data set [3] (setting [6]), the “T/C (relative tumor proliferation rate)” value is given as 33.76% and the “TGI (relative tumor inhibition)” value was 66.24%. The Relative tumor volume in data set [3] (day 21 after administration began, docetaxel 20, 1-Z00 20, 1-Z00-J 10 mg/kg i.v. QW × 4, mean ± standard error) amounted to 3.87 ± 0.61. Also, the Tumor volume in data set [3] (day 21 after administration began, mean ± standard error) was 564.93 mm^3 and 564.93 ± 108.61 mm^3. In data set [4] (setting [7]), this compound registered an AUMC0-inf of 2663.5 h · h · ng · mL^−1, an AUMC0-t of 1669.3 h · h · ng · mL^−1, a Kel of 0.3 h⁻¹ and an MRTIV of 1.8 h. Further, in data set [4] (setting [8]), the AUC(0-inf) was determined as 1480 ng·h/mL, the AUC(0-t) was 1400 ng·h/mL, the C0 is 2840 ng/mL and the Cmax is 1990 ng/mL. In data set [4] (setting [8]), the clearance stood at 116 mL/min/kg and the half-life was 2.1 h. For the same compound, the Vd in data set [4] (rat, female SD rats, single IV 10 mg/kg, docetaxel level in plasma, N=3, read-out: VdSS) came to 12.1 L/kg. The “sustained-release effect, exposure and clearance (conclusion in words)” value in data set [4] (rats, IV 10 mg/kg) is “rapid plasma clearance and low exposure”.

The record behind these values is patent US20240016946A1, “DRUG-LOADED MACROMOLECULE AND PREPARATION METHOD THEREFOR” (SHANGHAI SENHUI MEDICINE CO., LTD., priority 2020, published 2024).
